Laboratory results: paper PMC9208212, “Comparison of anti-cancer effects of novel protein disulphide isomerase (PDI) inhibitors in breast cancer cells characterized by high and low PDIA17 expression” (Cancer Cell International, 2022)

What was measured:
MDA-MB-231 cells [1] = experiment: MTT cell viability assay, MDA-MB-231; format: cell-based; conditions: Homo sapiens; MDA-MB-231 (low PDIA17), 72 h; read-out: IC50, MTT proliferation
Description: (§1) The proliferation rate of the cells was measured using an MTT assay. (see Additional file 1: Methods for details). IC50 parameter was determined as previously described.
(§2) The proliferation rate of the cells was measured using an MTT assay. The cells were seeded on 96-well plates (Sarstedt, Warsaw, Poland) at a density of MDA-MB-231, BALB/3T3 and MCF10A 1×10^4 cells/well, MCF-7 0.75×10^4 cells/well. Cells were incubated in the appropriate culture medium for 24 h before adding the tested compounds. Cells were then treated with each compound in four concentrations in the range 100–0.1 µg/mL. […] Absorbance was measured using a Bio Tek Hybrid H4 reader (BioTek Instruments, USA) at 570 nm wavelength.
(§3) Compounds at each concentration were tested in triplicate in a single experiment, and each experiment was repeated at least three times independently.

MDA-MB-231 cells [2] = experiment: Cancer cell adhesion to collagen type I, MDA-MB-231; format: cell-based; conditions: Homo sapiens
Description: (§4) Detailed procedures for the cancer cell adhesion studies are described in Additional file 1: Methods.
(§5) Briefly, 96-well plates (Corning, Tewksbury, MA, USA) were coated with collagen type I at a concentration of 10 μg/mL (Sigma-Aldrich, Steinheim, Germany) and incubated at 4°C overnight. After 24 h, the plates were blocked with 1% bovine serum albumin (BSA) (Sigma-Aldrich, Steinheim, Germany) in DPBS buffer (Gibco, Scotland, UK) for 60 minutes at 37°C. […] Then, cancer cells were left to adhere to collagen I for 30 min at 37°C. Non-adherent cells were gently washed twice with DPBS, and attached cells were counted in nine randomly selected visual fields for each well using a CQ1 image cytometer (Yokogawa, Tokyo, Japan). Experiments were conducted twice in six technical replicates. The images were analyzed using Columbus 2.4.2 software (Perkin Elmer, Waltham, MA, USA).

PDIA17 = target: T1, PDIA17 (Homo sapiens, UniProt O95994); experiment: Insulin reduction turbidimetry assay, PDIA17; format: biochemical
T1 construct: PDIA17 (recombinant protein ab64013, human, full length, E.coli, Abcam, Cambridge); purchased Abcam ab64013; host or cells: E. coli
T1 sequence (O95994 21-175): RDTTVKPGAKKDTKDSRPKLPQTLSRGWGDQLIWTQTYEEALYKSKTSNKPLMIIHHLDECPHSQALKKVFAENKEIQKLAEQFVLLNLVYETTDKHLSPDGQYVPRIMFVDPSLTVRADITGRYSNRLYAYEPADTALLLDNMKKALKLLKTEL
Description: The PDI inhibitor activity towards PDIA1, PDIA3 and PDIA17 was assessed as an increase in disulphide bond reduction in human insulin in the presence of DL-dithiotreitol (DTT) causing aggregation of its β-chain, analyzed by turbidimetry as presented earlier by Kalvins et al. and Chlopicki et al. (see Additional file 1: Methods for more details).
The PDI inhibitors’ activity towards PDIA1, PDIA3 and PDIA17 was assessed as an increase in disulphide bond reduction in human insulin in the presence of DTT causing aggregation of its β-chain, analyzed by turbidimetry as presented earlier by Kalvins et al. 2021 and Chlopicki et al., 2021. Briefly, the assay mixture for 96-well plates was prepared by dissolving in […] phosphate buffer (pH 7.6 for activity testing of PDIA1, PDIA3 and pH 8.0 for PDIA17), 6 µg/ml (96 nM) of PDIA1 (recombinant protein MBS9422429, human, full length, 18-508aa His-tag, E.coli, MyBioSource, San Diego, CA, USA), PDIA3 (recombinant protein MBS203583, 25-505aa, human, His-tag, E.coli, MyBioSource, San Diego, CA, USA) or PDIA17 (recombinant protein ab64013, human, full length, E.coli, Abcam, Cambridge), 2 mM EDTA and 0.08 mM DTT (D9779 Sigma-Aldrich, Steinheim, Germany). Stock solutions of C-3353, C-3380, C-3389 and C-3399 were freshly prepared in dimethyl sulfoxide (DMSO) and subsequently diluted to keep the final DMSO concentration in the assay mixture below 1%. Calculated amounts of compounds solutions were added into test wells, and the reaction was started by the addition of insulin (insulin 91077C, human recombinant; Sigma-Aldrich, Steinheim, Germany) and 0.08 mM of DTT. The final concentration of insulin and DTT in the assay mixture was 0.15 and 0.16 mM, respectively. The reaction rate was monitored at 650 nm on a Microplate Reader Infinite M1000 PRO for 60 minutes at 37°C. Turbidity values for the wells containing only the PDI isoform tested (background values) were subtracted from the turbidity values of the wells containing the tested PDI isoform and selected inhibitors. […]

PDIA1 = conditions: recombinant human PDIA1, insulin/DTT turbidimetry, pH 7.6; cited from earlier work
MCF-7 cells [3] = experiment: MTT cell viability assay, MCF-7; format: cell-based; conditions: Homo sapiens, MCF7; MCF-7 (high PDIA17), 72 h; read-out: IC50, MTT proliferation
Description: as §1, §2, §3

[4] = MTT cytotoxicity against regular cell line MCF10A; format: cell-based; conditions: MCF10A human breast epithelial cells, read-out: IC50, cytotoxicity against regular cell line
Description: as §1
(§6) To test cytotoxicity of compounds used in this study against regular cell lines, BALB/3T3 and MCF10A cells were used, mouse fibroblast and human breast epithelial cell line, respectively.
as §2, §3

PDIA3 = conditions: recombinant human PDIA3, insulin/DTT turbidimetry, pH 7.6; cited from earlier work
MCF-7 cells [5] = experiment: ECIS wound healing migration assay, MCF-7; format: cell-based; conditions: Homo sapiens, MCF7, tested 10, 30, 100 µM, read-out: Concentration substantially reducing migration rate (ECIS wounding assay)
Description: (§7) The migration of MCF-7 and MDA-MB-231 cells was monitored using real-time quantitative wound healing assays and 96W1E + ECIS arrays (Applied Biophysics, Troy, NY, USA) according to the procedure reported by Stojak et al. with minor modifications and C-3353 inhibitor as a tested compound. Detailed procedures for the ECIS studies are described in Additional file 1: Methods.
(§8) The migration of MCF-7 and MDA-MB-231 cells was monitored using real-time quantitative wound healing assays and 96W1E+ ECIS arrays (Applied Biophysics, Troy, NY, USA) according to the procedure reported by Stojak et al. (2020) with minor modifications. To this end, MDA-MB-231 cells were seeded at a density of 3 × 10^4 per well and MCF-7 cells at a density of 6 × 10^4 cells per well. Before the cell seeding procedure, the 96W1E+ plate was pretreated with 10 mM L-cysteine (Sigma-Aldrich, Steinheim, Germany) according to the manufacturer’s instruction. Immediately after cell seeding, resistance (Ω), capacitance (µF) and impedance (Ω) measurements were initiated at frequencies from 250 Hz to 64 kHz (250, 500, 1000, 2000, 4000, 8000, 16,000, 32,000 and 64,000 Hz) using the multiple frequency time mode. […] The healing process was measured continuously as cells migrated onto the electrode. The area under the curve (AUC) was quantified and normalized to the untreated control. […]

MDA-MB-231 cells [6] = experiment: ECIS wound healing migration assay, MDA-MB-231; format: cell-based; conditions: Homo sapiens, tested 10, 30, 100 µM, read-out: Concentration effectively inhibiting migration (ECIS wounding assay)
Description: as §7, §8

[7] = MTT cytotoxicity against regular cell line BALB/3T3; format: cell-based; conditions: balb/3t3 cells, BALB/3T3 mouse fibroblasts, read-out: IC50, cytotoxicity against regular cell line
Description: as §1, §6, §2, §3

MCF-7 cells [8] = experiment: Cancer cell adhesion to collagen type I, MCF-7; format: cell-based; conditions: Homo sapiens, MCF7
Description: as §4, §5

Structure (SMILES)	IC50 (MDA-MB-231 cells [1]) [µM]	minimal effective concentration (MDA-MB-231 cells [2]; MDA-MB-231, read-out: Concentration inhibiting adhesion to collagen) [µM]	IC50 (PDIA17) [µM]	IC50 (PDIA1) [µM]	IC50 PDIA1 (PDIA1)	IC50 (MCF-7 cells [3]) [µM]	CC50 at 72 h [4] [µM]	IC50 (PDIA3) [µM]	IC50 PDIA3 (PDIA3)	minimal effective concentration (MCF-7 cells [5]) [µM]	minimal effective concentration (MDA-MB-231 cells [6]) [µM]	CC50 at 72 h [7] [µM]	minimal effective concentration (MCF-7 cells [8]; MCF-7, read-out: Concentration inhibiting adhesion to collagen) [µM]	activity at 10 µM (MDA-MB-231 cells [2]; MDA-MB-231, inhibitor 10 µM) [%]	IC50 PDIA17 (PDIA17; recombinant human PDIA17, insulin/DTT turbidimetry, pH 8.0, n.a. = not active in range of concentrations used)	activity at 3 µM (MCF-7 cells [8]; MCF-7, inhibitor 3 µM) [%]
COC(=O)C1CN1S(=O)(=O)c1ccc(F)cc1F (stereo not drawn) [Inhibitor C-3353]	87.4 ± 9.42	50	20.1	5	inhibitory effect on PDIA1	22.5 ± 6.42	75.6 ± 4.05	143	not on PDIA3	≥ 30	100	> 360	3			
COC(=O)C1CN1S(=O)(=O)c1ccc2c(N(C)C)cccc2c1 (stereo not drawn) [Inhibitor C-3399]	8.69 ± 0.89		> 200	0.12		11.1 ± 0.78	17.9 ± 1.15	4	low micromolar range			38.2 ± 10.3		~75	not effective	~50
